Results published in US7785849B2, “Cyclic nucleotide-specific phosphodiesterases from Leishmania and uses thereof” (priority 2003, dated 2010).
Like-named read-outs stand apart in the source and are kept apart here.

Key:
LmPDE-B1 = LmPDE-B1 (Leishmania major, UniProt Q6S997); experiment: PDE activity assay in yeast lysates, recombinant LmPDE-B1 (3H-cAMP hydrolysis); format: biochemical; details: for IC50: read-out: IC50, inhibition of LmPDE-B1 activity
Method: (§1) PP5 yeast cells expressing LmPDE-A, LmPDE-B1, and LmPDE-B2, were lysed as described previously (Zoraghi et al. (2001) J. Biol. Chem. 276, 11559-11566). The cells were grown to mid-log to end-log phase in SC-leu medium, collected, resuspended in the original volume of prewarmed YPD medium, and incubated for an additional 3.5 hours at 30° C. to maximize protein expression. The cells were then harvested, washed twice in H2O, pelleted by centrifugation, and stored overnight at −70° C. The cell pellet was thawed on ice and resuspended in ice-cold extraction buffer (50 mM Hepes pH 7.5, 100 mM NaCl, 1× Complete® protease inhibitor cocktail without EDTA (Roche)). Cells were lysed by grinding with glass beads (0.45-0.50 mm) in 2 ml Sarstedt tubes using a FastPrep FP120 cell disrupter (3×45 seconds at setting 4). The lysed cells were centrifuged and glycerol was added to the resulting supernatant to a final concentration of 15% (v/v). Aliquots were snap-frozen in liquid nitrogen and were stored at −70° C.
PDE activity was determined in 50 mM HEPES, pH 7.5, 0.5 mM EDTA, 10 mM MgCl2, and 50 mg/ml BSA in a final assay volume of 100 μl. Each assay contained 50,000 cpm of ^3H-labeled cAMP, with unlabeled cAMP added to adjust the desired total substrate concentration. […] The standard reaction time was set to 15 minutes, and the amount of enzyme was always chosen so that no more than 15% of the substrate was hydrolyzed. Inhibitor studies were done at a cAMP concentration of 1 μM. Inhibitors were dissolved in DMSO, but the final DMSO concentration in the assays never exceeded 1%. Control reactions with DMSO alone were always included. Reactions were stopped by the addition of 25 μl of 0.5 N HCl. For the subsequent dephosphorylation of the AMP, the stopped reactions were neutralized with 20 μl of 1 M Tris base, followed by the addition of 10 μl of alkaline phosphatase (Roche Diagnostics; 1 unit/10 μl). The dephosphorylation reactions were incubated for 15 minutes at 37° C. and were then applied to 1 ml columns of QAE-Sephadex A25 in 30 mM ammonium formiate, pH 6.0. The ^3H-adenosine formed as a reaction product was eluted with 1.6 ml of 30 mM ammonium formiate, pH 6.0 and was collected into 3.5 ml of water-soluble scintillation fluid (Packard Ultima Flo). Assays were performed in triplicate, and data were analyzed using the Graph Pad Prism software package.

LmPDE-B2 = experiment: PDE activity assay in yeast lysates, recombinant LmPDE-B2 (3H-cAMP hydrolysis); format: biochemical, Leishmania major; details: 100 μM inhibitor, 1 μM cAMP
Method: as §1
PDE activity was determined in 50 mM HEPES, pH 7.5, 0.5 mM EDTA, 10 mM MgCl2, and 50 mg/ml BSA in a final assay volume of 100 μl. Each assay contained 50,000 cpm of ^3H-labeled cAMP, with unlabeled cAMP added to adjust the desired total substrate concentration. […] Assays were performed in triplicate, and data were analyzed using the Graph Pad Prism software package.

LmPDE-B1, sequence (Q6S997 entry or part of it): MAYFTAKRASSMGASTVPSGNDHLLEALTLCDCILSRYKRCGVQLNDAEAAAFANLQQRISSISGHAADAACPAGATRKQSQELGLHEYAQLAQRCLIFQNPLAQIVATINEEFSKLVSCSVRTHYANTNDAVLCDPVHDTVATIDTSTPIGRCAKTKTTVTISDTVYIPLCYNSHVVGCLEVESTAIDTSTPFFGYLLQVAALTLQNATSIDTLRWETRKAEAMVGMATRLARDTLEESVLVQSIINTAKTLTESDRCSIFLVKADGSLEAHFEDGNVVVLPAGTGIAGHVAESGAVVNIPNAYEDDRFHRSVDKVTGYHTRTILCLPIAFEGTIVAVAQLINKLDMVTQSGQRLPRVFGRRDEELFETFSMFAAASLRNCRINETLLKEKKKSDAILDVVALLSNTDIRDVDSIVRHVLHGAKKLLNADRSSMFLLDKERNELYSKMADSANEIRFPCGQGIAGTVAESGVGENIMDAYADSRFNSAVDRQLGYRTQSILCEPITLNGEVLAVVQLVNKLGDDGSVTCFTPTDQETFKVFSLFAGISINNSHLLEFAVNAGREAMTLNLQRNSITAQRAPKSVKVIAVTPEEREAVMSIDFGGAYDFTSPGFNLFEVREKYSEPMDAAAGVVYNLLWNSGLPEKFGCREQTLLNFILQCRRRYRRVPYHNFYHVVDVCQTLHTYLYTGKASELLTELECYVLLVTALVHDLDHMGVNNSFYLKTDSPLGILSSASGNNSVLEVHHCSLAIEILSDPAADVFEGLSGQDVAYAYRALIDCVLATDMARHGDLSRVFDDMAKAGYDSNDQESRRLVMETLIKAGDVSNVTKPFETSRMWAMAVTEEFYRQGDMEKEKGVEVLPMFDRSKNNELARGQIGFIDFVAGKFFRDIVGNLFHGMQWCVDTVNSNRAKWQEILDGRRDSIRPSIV

Row | SMILES | effect on rate of hydrolysis of cAMP by LmPDE-B1 (LmPDE-B1; 100-fold excess of cGMP) | sensitivity of LmPDE-B1 activity to PDE inhibitor (LmPDE-B1) | IC50 (LmPDE-B1) [µM] | sensitivity of LmPDE-B2 activity to PDE inhibitor (LmPDE-B2) | IC50 (LmPDE-B1; 1 μM cAMP, yeast lysate) [µM] | sensitivity of LmPDE-B1 activity to PDE inhibitor (LmPDE-B1; 100 μM inhibitor, 1 μM cAMP)
1 | Nc1nc2c(ncn2[C@@H]2O[C@@H]3COP(=O)(O)O[C@H]3[C@H]2O)c(=O)[nH]1 [cGMP, cyclic guanosine mono-phosphate] | did not affect |  |  |  |  | 
2 | OCCN(CCO)c1nc(N2CCCCC2)c2nc(N(CCO)CCO)nc(N3CCCCC3)c2n1 [dipyridamole] |  | partly sensitive | 22.6 | partly sensitive |  | 
3 | COc1cc2c(cc1OC)-c1c/c(=N\c3c(C)cc(C)cc3C)n(C)c(=O)n1CC2 [trequinsin] |  |  |  | partly sensitive | 96.6 | partly sensitive
